Results reported in patent publication US20090036437A1, “PHARMACEUTICAL COMPOSITION COMPRISING PHENOXAZINIUM COMPOUND AS AN ACTIVE INGREDIENT” (priority 2005, published 2009).

How the values were obtained:
[1] = in vitro growth-inhibiting assay of rat L6 cells; type: cell-based; conditions: rat; Table 8; read-out: 50% growth-inhibiting concentration (nM) cytotoxicity L6
Description: Rat L6 cell (rat skeletal myoblast cell) was cultured in RPMI-1640 culture medium supplemented with 1% of L-glutamine (200 mM) and fetal calf serum (10%) under 5% CO2 concentration at 37° C. A test sample was prepared by dissolving the test compounds according to the present invention and a positive control drug in DMSO to a predetermined concentration. After pre-culture had been finished, the culture medium containing the cells in a logarithmic phase was placed into each well of a 96-well culture plate, and the test sample comprising the predetermined amount of the test compound, and DMSO without the test compound were added to the wells in duplicate.
(§1) After incubation of the culture plate for 72 hours in an incubator, a growth-inhibiting activity was assayed as follows. Alamar Blue aqueous solution (10 μL) was added to each well followed by a further two-hour culture. The culture plate was then attached to a fluorescence micro titer plate reader (Spectramax Gemeni XS; U.S. Molecular Device Co.), and the intensity of fluorescence at 588 nm was detected with an excitation wave length of 536 nm. A residual ratio of L6 cells was calculated with respect to a group treated with the test sample and a control group. A growth-inhibiting ratio for L6 cells was then calculated from the resulting residual ratio in accordance with the following equation to determine 50% growth-inhibiting concentration (EC50).
Growth-inhibiting ratio (%)=[1−(C−A)/(B−A)]×100 • A: Initial number of cells; • B: Number of the cells in the control after 3 days; and • C: Number of the cells treated with the test sample after 3 days Determination of Pharmaceutical effect for Chloroquine-Resistant Malaria

[2] = tested on: Trypanosoma brucei rhodensiense (STIB 900 strain); assay: in vitro growth-inhibiting screening assay, protozoa of African trypanosomiasis; type: cell-based
Description: This test was done using a trypomastigote of the protozoa of Trypanosoma brucei rhodensiense (STIB 900 strain) ranging in blood stream. MEM medium sterilized by filtration was supplemented with 25 mM of N-2-hydroxyethylpiperazine-2-ethanesulfonic acid (HEPES), 1 g/L of glucose, 1% of MEM non-essential amino acids, 0.2 mM of 2-mercaptoethanol, 2 mM of sodium pyruvate, 1 mM of hypoxathine and 15% of heat-treated horse serum. The protozoa were cultured under CO2 concentration of 5%, at 37° C.
A test sample was prepared by dissolving the test compounds according to the present invention and a positive control drug (Melarsoprol) in DMSO to a predetermined concentration. Culture medium containing the protozoa of 8×10^3, and the test sample comprising the predetermined amount of the test compound, and DMSO without the test compound were added into each well of 96-well culture plate to a final volume of 100 μL in duplicate.
as §1, with “Co.),” for “Co.), and”, “with” for “with an”, “nm to calculate an infection” for “nm. A residual”, “the protozoa” for “L6 cells was calculated”, “ratio” for “ratio for L6 cells”, “infection” for “residual”
Growth-inhibiting ratio (%)=[1−(b−a)/(c−a)]×100 • a: Initial infection ratio; • b: Infection ratio of the test sample group; and • c: Infection ratio of the control group.
A selective toxicity coefficient, which is used as an index for the selective toxicity for the protozoa of African trypanosomiasis, was calculated by the following equation, and the pharmaceutical effect was determined.
Selective toxicity coefficient=(EC50 value of the test sample for rat L6 cell)/(EC50 value of the test sample for the protozoa of African typanosomiasis)

Nc1nc(N)nc(Nc2ccc([As]3SCC(CO)S3)cc2)n1 (stereo not drawn) [Melarsoprol, reference compound]
EC50 at 72 h [1]: 7800 nM | Selective toxicity ([2]; EC50 rat L6 cell / EC50 protozoa of African trypanosomiasis): 1300 | EC50 ([2]; Trypanosoma brucei, STIB900, 72 h, read-out: 50% growth-inhibiting concentration (nM) Trypanosoma brucei rhod.): 6 nM
